In US9506068B2, “Pain treatment using ERK2 inhibitors” (Cornell University, priority 2008, dated 2016):
“Also recorded” adds a separate entry of the source.

Tests used:
ERK2 mRNA = assay: Non-radioactive in situ hybridization of ERK2 mRNA in spinal cord dorsal horn after intraparenchymal vector injection; assay type: in vivo, mouse; settings: 3 weeks after intraparenchymal injection; ipsilateral vs contralateral; listed as MM
Method: (§1) The viral vectors, ERK2-5, 2-7, 2-8 and MM were micro-injected into the spinal cord dorsal horn (SCDH) as described by South et al. (South et al., 2003). The mice were anesthetized with ketamine/xylazine. A laminectomy was performed to remove part of the dorsal L2 and L3 spinous process and the lumbar area of spinal cord was exposed for intraparenchymal injection (IPI). Three unilateral injections of 1 μl (1-3×10^9 viral particles/μl) were administered 0.5-0.7 mm apart, at a depth of 0.3 mm from the dorsal border and 0.5 mm from the midline, using a glass pipette with a 40-μm-diameter tip attached to a 5 μl Hamilton syringe. The syringe was mounted on a microinjector (David Kopf Instruments, Tujunga, Calif.) attached to a stereotaxic unit (David Kopf Instruments). After the injection, the overlying muscles were closed with 5-0 chromic gut and the skins were closed with wound clips. […]
ERK2 mRNA expression in the SCDH was detected by non-radioactive in situ hybridization as described by (Garraway et al., 2007). […]
(§2) Fluorescent IHC images were captured by a Zeiss LSM 510 laser scanning confocal microscope. […] Quantitative analysis was performed by a blinded observer using Metamorph software (Universal Imaging, Downingtown, Pa.) as described previously (Garraway et al., 2007). […]

ERK1 [1] = assay: Western blot of spinal cord dorsal horn: ERK1 and pERK1; assay type: in vivo, mouse; settings: compared to animals that did not receive intraparenchymal injection of a vector
Method: as §1, with “syringe.” for “syringe. The syringe was mounted on a microinjector (David Kopf Instruments, Tujunga, Calif.) attached to a stereotaxic unit (David Kopf Instruments). After the injection, the overlying muscles were closed with 5-0 chromic gut and the skins were closed with wound clips.”
(§3) Animals were deeply anesthetized by isoflurane, decapitated and the lumbar spinal cord dorsal horn at the level of L4-L6 were rapidly dissected. […] The protein level of each sample was measured by the BioRad DC assay. […]
(§4) Membranes were incubated with rabbit anti-pERK1/2 antibody (1:1000; 07-362; Cell Signaling Technology, Inc.) in blocking solution overnight at 4° C., washed in TBS with 0.1% Tween-20 (TBST), then incubated with HRP-conjugated anti-rabbit IgG (1:1000, Pierce Biotechnology, Inc., Rockford, Ill.) in blocking solution for 1 hr. […] Ratios of intensity of pERK1/2 or ERK1/2 to β-actin were calculated, normalized to the control samples and subject to statistical analysis. […]

[2] = system: spinal cord dorsal horn (SCDH); settings: mouse, in vivo
Method: Mice were anesthetized with pentobarbital and then perfused transcardially with 4% paraformaldehyde (PFA) in phosphate buffered saline (PBS) with 1 mM NaF. Fifty mL of fixative was perfused over 5 min by using a peristaltic pump. The spinal cord was dissected and placed in 4% PFA for 1 hr before being transferred to 30% sucrose for cryoprotection for 72 hr. Lumbar spinal cord cryosections of 20-μm thick were obtained from a cryostat (Leica, Bannockburn, Ill.) for IHC and in situ hybridization.
For IHC, the spinal cord sections were incubated in blocking solution (3% normal goat serum, 0.1% Triton X-100 in Tris buffered saline) for 30 min. After washing in Tris buffered saline (TBS), sections were incubated with one or two of the following primary antibodies: rabbit anti-GFP (1:1000; Invitrogen-Molecular Probes Inc, Eugene, Oreg.), rabbit anti-phospho-ERK1/2 (1:1000; Cell Signaling Technology, Inc., Danvers, Mass.), mouse anti-NeuN (1:400; Millipore-Chemicon, Bedford, Mass.), rabbit anti-c-fos (1:2000, Santa Cruz Biotechnology, Santa Cruz, Calif.), rabbit anti-Dynorphin A(1:2000, Bachem, San Carlos, Calif.), mouse anti-GFAP (1:2000; Millipore-Chemicon) and rat anti-OX42 (1:1000, BD Biosciences, San Diego, Calif.) overnight in blocking solution at 4° C. […]

ERK2 = assay: Western blot of spinal cord dorsal horn: ERK2 and pERK2; assay type: in vivo, mouse; settings: compared to animals that did not receive intraparenchymal injection of a vector
Method: as §1, with “syringe.” for “syringe. The syringe was mounted on a microinjector (David Kopf Instruments, Tujunga, Calif.) attached to a stereotaxic unit (David Kopf Instruments). After the injection, the overlying muscles were closed with 5-0 chromic gut and the skins were closed with wound clips.”
as §3, §4

[3] = system: fusion mRNA of the ERK2 and the humanized Renilla luciferase (hRluc) gene; assay: psiCHECK Dual Luciferase Reporter Assay; assay type: cell-based, mouse; settings: HEK 293 cells cotransfected with psiCHECK plasmid and rAAV plasmid; normalized to 100% of rAAV plasmid lacking shRNA (GFP); n=4
Description: FIGS. 1A-J illustrate expression of green fluorescent protein (GFP) and the knockdown of ERK2 mRNA in the mouse spinal cord dorsal horn (SCDH) at 3 weeks after the intraparenchymal injection of a neurotropic recombinant adeno-associated virus (rAAV) vector expressing ERK2 siRNA. […] Thus, the expression of GFP was not influenced by co-expression of the ERK2 siRNAs. […] Scale bar, 500 μm. In FIG. 1I, ERK2 mRNA expression was quantified from in situ images and plotted in the bar graph as the ratio of the integrated optical density of in situ labeling in the ipsilateral SCDH to that in the contralateral SCDH. Data are the mean±SEM (n=3). […] There was no significant difference in the ratio among the three active siRNA vectors. […] HEK 293 cells were cotransfected with the psiCHECK plasmid (which contains the ERK2-Renilla luciferase fusion gene and the firefly luciferase gene) and with a rAAV plasmid expressing a candidate ERK2 shRNA sequence. rAAV plasmids that yield active siRNAs reduce the expression of Renilla luciferase relative to firefly luciferase, leading to a reduction of the activity ratio. The assay results are the mean±SEM (n=4). The Renilla/firefly signal was normalized to a value of 100% from the results of a concurrent assay containing psiCHECK and a rAAV plasmid that lacked coding for a shRNA sequence (GFP). […]

C57BL/6 mice [4] = assay: Acute mechanical stimulus threshold (von Frey); assay type: in vivo, mouse; settings: before vs. at least 3 weeks after vector administration, no CFA
Method: Mechanical stimulus threshold to a non-noxious mechanical stimulus was determined by paw withdrawal to the application of a series of calibrated von Frey filaments to the surface of the hind paws. The animals were placed in a Plexiglas cage with mesh flooring suspended above the researcher and left to acclimate for 30 min. von Frey filaments were applied perpendicularly against the mid-plantar surface of the foot. The “up-down” method of Dixon (Chaplan et al., 1994) was used to determine the value at which paw withdrawal occurred 50% of the time, interpreted as the mechanical threshold.

C57BL/6 mice [5] = assay: Acute thermal paw withdrawal threshold; assay type: in vivo, mouse; settings: before vs. at least 3 weeks after vector administration, no CFA
Method: Thermal paw withdrawal threshold was assessed using a thermal nociceptive stimulus apparatus (Hargreaves et al., 1988). Prior to the test, the animals were allowed to acclimate for 30 min to the test chamber on a pre-heated glass plate maintained at 30° C. A radiant thermal stimulus (5.10 amps) was applied to the mid-plantar surface of the hind paw through the glass plate. The latency, in seconds, for the withdrawal of the paw from the heat source was determined automatically. If no response was elicited, the heat source was automatically shut off at 20 sec to prevent tissue injury. A minimum break of 5 min was allowed between each trial. Three to six trials were performed for each paw.

C57BL/6 mice [6] = assay: Motor function tests (surface righting, placing/stepping, grasping/climbing); assay type: in vivo, mouse; settings: after intraparenchymal injection of vector
Method: All behavioral testing was conducted in groups of 10 mice per treatment by a blinded observer. Motor function tests were performed before mechanical stimulus threshold or thermal paw withdrawal threshold were measured (Garraway et al., 2007). No deficits in reflexes for surface righting, placing/stepping and grasping/climbing were found in animals treated with either the control rAAV vector or rAAV viral vectors.

[7] = system: spinal cord dorsal horn (SCDH); assay: GFP immunolabeling after rAAV vector injection (extent and cell type of transduction); assay type: in vivo, mouse; settings: confocal fluorescent immunohistochemistry; NeuN, GFAP, OX42 markers
Method: The viral vectors, ERK2-5, 2-7, 2-8 and MM were micro-injected into the spinal cord dorsal horn (SCDH) as described by South et al. (South et al., 2003). The mice were anesthetized with ketamine/xylazine. A laminectomy was performed to remove part of the dorsal L2 and L3 spinous process and the lumbar area of spinal cord was exposed for intraparenchymal injection (IPI). Three unilateral injections of 1 μl (1-3×10^9 viral particles/μl) were administered 0.5-0.7 mm apart, at a depth of 0.3 mm from the dorsal border and 0.5 mm from the midline, using a glass pipette with a 40-μm-diameter tip attached to a 5 μl Hamilton syringe. The syringe was mounted on a microinjector (David Kopf Instruments, Tujunga, Calif.) attached to a stereotaxic unit (David Kopf Instruments). After the injection, the overlying muscles were closed with 5-0 chromic gut and the skins were closed with wound clips. Animals were allowed to recover for three weeks before undergoing behavioral tests, or sacrificed for histological and Western blot analysis.
as §2

ERK1 [8] = assay: Western blot of transfected HEK293 cells: ERK1; assay type: cell-based, human
Description: Separate cultures of an immortalized cell line of human embryonic kidney cells (HEK293) were transfected with three active siRNAs directed against human ERK2. […] The sequences of the three human ERK2 siRNAs (#1, #2, and #3) and the control mismatch siRNA are shown below. The siRNAs were expressed from the rAAV vector. Thus, to generate the siRNA #1, the DNA sequence of the sense strand […] NO:777) was linked to a spacer derived from an miRNA […] ID NO:766) at the 3' end, which was then linked to the corresponding antisense sequence […] NO:778)). Thus, the non-template strand sequence used in the expression cassette for the […] NO:777) siRNA will have the following sequence (SEQ ID NO:779)): [NT] This sequence was placed downstream of an RNA polymerase III (RNA pol III) promoter in the rAAV vector. The vector also contained 6 consecutive dTs in the non-template strand following the SEQ ID NO:779 sequence to stop the transcription.

With “mm: inactive control mismatch siRNA CCUCGUCAUAAUACUGGGUUU used in HEK293 cells (chemistry not given here)” the “ERK2 mRNA level in the ipsilateral SCDH (in situ hybridization)” value (ERK2 mRNA) was “did not alter; also recorded: no change”, the “expression or phosphorylation of ERK1” value (ERK1 [1]) was “did not have any effect” and the “gliosis in the spinal cord dorsal horn” value [2] was “no evidence of gliosis”. The neuronal cell loss [2] was “no evidence of neuronal cell loss”, the “expression or phosphorylation of ERK2” value (ERK2) was “did not have any effect” and the “Renilla/firefly luciferase activity ratio” value [3] was “ineffective”. For the same substance, the mechanical withdrawal threshold (C57BL/6 mice [4]) was “No change”, the heat withdrawal latency (C57BL/6 mice [5]) was “No change” and the “animals with signs of motor deficits” value (C57BL/6 mice [6]) was “None”. For the same substance, the “cellular localization of GFP immunolabeling” value [7] was “colocalized with NeuN”.
“siRNA #1: human ERK2 siRNA (1833-1851) GCAGGAGCUUGUGGAAAUAUU, expressed from the rAAV vector” was tested, and the ERK1 expression (ERK1 [8]) was “without significantly changing”.
For “siRNA #2: human ERK2 siRNA (884-902) GCUGCAUUCUGGCAGAAAUUU, expressed from the rAAV vector”, the ERK1 expression (ERK1 [8]) was “without significantly changing”.
With “siRNA #3: human ERK2 siRNA (357-375) GUGCUCUGCUUAUGAUAAUUU, expressed from the rAAV vector” the ERK1 expression (ERK1 [8]) was “without significantly changing”.
